The text below walks through data of PubChem BioAssay (NCI).

Holding throughout (assay): NCI anticancer screen, dose series, 48 h
Experiment [1] has as its system CCRF-CEM leukemia.
For experiment [2], the system named is DU-145 prostate.
The test system of experiment [3] is HOP-62 NSCLC.
Experiment [4] has as its system HT29 colon.
Experiment [5] deals with NCI-H23 lung.
The subject of experiment [6] is NCI/ADR-RES ovarian.
Experiment [7] deals with OVCAR-3 ovarian.
For experiment [8], the system named is OVCAR-8 ovarian.
Experiment [9] deals with SF-539 CNS.
Experiment [10] deals with SNB-19 CNS.

Values joined by “and” are separate entries in the source; they are usually repeats but may differ in a detail not shown here. Equal values may be shown once.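 How tested: cells in 96-well plates exposed to compound for 48 hours at five concentrations. At the GI50, growth is halved. Definition used: TGI = concentration required for complete inhibition of growth.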

Consider `CC(=O)N[C@@H](Cc1ccc(OP(=O)(O)O)cc1)C(=O)N[C@H]1CCC(=O)N2CCC[C@@H](C(=O)NC3CCc4ccccc43)N2C1=O` (some centres undefined), for which the GI50 in experiment [1], in experiment [2], in experiment [3], in [4], in experiment [5] and in experiment [6] was above 25000 nM throughout. The GI50 in experiment [7], in experiment [8], in experiment [9] and in [10] was above 25000 nM throughout. Further, the TGI in experiment [1], in [2], in [3], in experiment [4], in experiment [5] and in experiment [6] was above 25000 nM in each case. Besides, the TGI in experiment [7], in experiment [8], in experiment [9] and in experiment [10] was above 25000 nM in each case.
Take `CCOc1ccc2c(c1)C(=O)c1c-2n(CCCN=[N+]=[N-])c(=O)c2cc([N+](=O)[O-])ccc12`: the GI50 in experiment [1] is 442 nM; in [2] it was 3860 nM; in experiment [3], 3000 nM; in experiment [4] it was 21400 nM; in [5] it was 997 nM; in experiment [6], 3910 nM. The GI50 in experiment [7] is 20000 nM; in experiment [8] it was 11900 nM; in [9], 3880 nM; in experiment [10], 4140 nM. For the same compound, the TGI was 2790 nM in [1]; 38600 nM in experiment [2]; 43600 nM in experiment [3]; above 100000 nM in experiment [4]; above 100000 nM in [5]; above 100000 nM in experiment [6]. The TGI in experiment [7] is above 100000 nM; in experiment [8], above 100000 nM; in [9], 19000 nM; in experiment [10], 85500 nM.
On to `CC[C@@H](C)/C=C(C)/C=C/C(=O)c1c(O)c(-c2ccc(O)cc2)cn(OC2CC(=O)CCC(C)OC(=O)CC2O)c1=O` (some centres undefined), for which the GI50 is 163 nM in experiment [1]; 303 nM in [2]; 356 nM in experiment [3]; 3470 nM in experiment [4]; 406 nM in experiment [5]; 286 nM in [6]. Further, the GI50 in experiment [7] was 284 nM; in experiment [8] it was 354 nM; in experiment [9] it was 366 nM; in experiment [10], 554 nM. The TGI in [1] turned out to be 12600 nM; in experiment [2] it was 13400 nM; in experiment [3] it was 12900 nM; in [4], 14100 nM; in [5], 9290 nM; in experiment [6] it was 3030 nM. For the same compound, the TGI in experiment [7] came to 14100 nM; in experiment [8], 22800 nM; in [9], 3840 nM; in experiment [10], 14900 nM.
In the case of `NC1(C(=O)N[C@@H](CCO)c2ccc(Cl)cc2)CCN(c2ncnc3[nH]ccc23)CC1`, the GI50 in experiment [1] was 499 nM and 1180 nM; in [2], > 2740 nM and 29700 nM; in experiment [3], 3690 nM and 4890 nM; in [4], 2500 nM and 5260 nM; in experiment [5], > 3450 nM and 13900 nM; in experiment [6] it was above 100000 nM. Moreover, the GI50 was > 2430 nM and 28000 nM in experiment [7]; > 4300 nM and 42500 nM in experiment [8]; 223 nM and 417 nM in experiment [9]; 1500 nM and 3820 nM in experiment [10]. For the same compound, the TGI in experiment [1] was above 58400 nM; in experiment [2] it was above 100000 nM; in [3], above 100000 nM; in experiment [4], above 100000 nM; in experiment [5] it was above 100000 nM; in experiment [6] it was above 100000 nM. Also, the TGI in experiment [7] is above 100000 nM; in experiment [8], above 100000 nM; in [9], 2420 nM and 13200 nM; in experiment [10], above 100000 nM.
With `CCCCOC(=O)c1c(C)[nH]c(/C=C2\N=C(c3ccc[nH]3)C=C2OC)c1C`, the GI50 in [1] is 58.3 nM; in experiment [2] it was 274 nM; in [3], 416 nM; in experiment [4], 41 nM; in [5], 254 nM; in [6] it was 121 nM. Moreover, the GI50 in experiment [7] was 151 nM; in [8] it was 216 nM; in [9] it was 245 nM; in experiment [10], 1180 nM. Moreover, the TGI in experiment [1] was above 20400 nM; in experiment [2] it was 6370 nM; in experiment [3], 8040 nM; in experiment [4] it was 1720 nM; in experiment [5], 2600 nM; in [6], 2920 nM. The TGI in [7] was 1170 nM; in experiment [8] it was 13800 nM; in experiment [9], 2000 nM; in experiment [10], above 56100 nM.
As to `CC(=O)ON=C1C=CC(=C(C#N)c2ccccc2)C=C1`, the GI50 in [1] was 387 nM; in [2], 704 nM; in experiment [3], 1630 nM; in [4] it was 3030 nM; in experiment [5], 4710 nM; in experiment [6], 768 nM. The GI50 in [7] is 1030 nM; in [8] it was 2070 nM; in experiment [9], 671 nM; in experiment [10], 11500 nM. Also, the TGI in experiment [1] is above 100000 nM; in experiment [2] it was 2860 nM; in experiment [3] it was 9160 nM; in [4] it was 12900 nM; in [5] it was above 47400 nM; in [6], 4210 nM. For the same compound, the TGI was 8410 nM in experiment [7], 15000 nM in experiment [8], 11200 nM in experiment [9] and above 57500 nM in experiment [10].
Consider `CC[C@@]1(O)C(=O)OCc2c1cc1n(c2=O)Cc2c-1nc1cc(F)c(C)c3c1c2[C@@H](NC(=O)CO)CC3`, for which the GI50 in experiment [1] was below 10 nM; in experiment [2], below 10 nM; in experiment [3] it was below 10 nM; in experiment [4], 51.2 nM; in [5], below 10 nM; in experiment [6], 56.4 nM. Besides, the GI50 in experiment [7] was 60.3 nM; in [8], 13.2 nM; in experiment [9], below 10 nM; in experiment [10], below 10 nM. Also, the TGI was above 100000 nM in [1]; above 100000 nM in experiment [2]; 2140 nM in experiment [3]; 72.9 nM in experiment [5]; 3980 nM in [6]; 1650 nM in experiment [7]. Moreover, the results for the TGI in experiment [8], in [9] and in experiment [10] were above 100000 nM, 40.4 nM and 2530 nM, respectively.
Regarding `C[C@]12CC[C@H]3[C@@H](CC[C@]4(O)C[C@@H](O[C@@H]5O[C@H](CO)[C@@H](O[C@@H]6OC[C@@H](O)[C@H](O)[C@H]6O)[C@H](O)[C@H]5O)CC[C@]34C=O)[C@@]1(O)CC[C@@H]2C1=CC(=O)OC1`, the GI50 is 780 nM in experiment [1]; 902 nM in [2]; 702 nM in experiment [3]; 1820 nM in experiment [4]; 839 nM in experiment [5]; 999 nM in experiment [6]. For the same compound, the GI50 in experiment [7] was 1170 nM; in experiment [8] it was 1620 nM; in experiment [9] it was 853 nM; in [10], 2530 nM. Further, the TGI was 5240 nM in [1]; 2310 nM in experiment [2]; 3000 nM in [3]; 5710 nM in [4]; 2710 nM in experiment [5]; 2400 nM in experiment [6]. The TGI in experiment [7] came out at 3080 nM; in experiment [8] it was 5560 nM; in [9] it was 1840 nM; in [10], 9270 nM.
With `CC1[C@@H]2CC=C3[C@H]4CCC5Cc6nc7c(nc6C[C@@]5(C)C4CC(=O)[C@]32CO[C@]12OC(C)(C)CC2O)CC1CC[C@@H]2C3=C[C@H]4O[C@@]5(O[C@@](C)(CO)C[C@@H]5O)C(C)[C@@]4(O)[C@]3(C)[C@@H](O)CC2[C@]1(C)C7` (some centres undefined), the GI50 is 0.309 nM and 0.365 nM in experiment [1]; 53.8 nM in [2]; 0.24 nM and 0.365 nM in [3]; 2.82 nM and 1.52 nM in [4]; 2.81 nM in experiment [5]; 71.3 nM and 498 nM in [7]. Besides, the GI50 is 0.16 nM and 0.365 nM in experiment [9]; 4.59 nM and 9.21 nM in experiment [10]. The TGI in [1] is 11.4 nM and 4.53 nM; in experiment [2], 716 nM; in [3] it was 2.48 nM and 6.09 nM; in [4], 48.7 nM and 27 nM; in [5], 275 nM and 67.2 nM; in experiment [6], 561 nM and > 3650 nM. Also, the TGI was 620 nM and 3330 nM in [7]; 745 nM and > 3650 nM in [8]; 537 nM and 443 nM in experiment [10].
Turning to `Cc1cnc(-c2ccc(-c3ccc(NC(=O)Nc4c(F)cc(F)cc4F)cc3F)c3c2C(=O)NC3)[nH]1`, the TGI is above 100000 nM in experiment [1]; 4640 nM and 7360 nM in experiment [2]; 3070 nM and 11000 nM in [3]; 2660 nM and 2450 nM in experiment [4]; 5500 nM and 6520 nM in experiment [5]; above 100000 nM in [6]. The TGI in [7] is 2820 nM and 3020 nM; in experiment [8], 3770 nM and 9450 nM; in experiment [9], 18900 nM; in [10] it was 14400 nM and 15500 nM. Moreover, the GI50 in experiment [2] is 1100 nM and 1420 nM; in [4], 431 nM and 359 nM; in [5] it was 286 nM and 545 nM; in [6], above 100000 nM; in experiment [7], 1380 nM and 1510 nM; in experiment [8], 1250 nM and 2080 nM. Further, the GI50 in experiment [9] is 709 nM; in [10], 2000 nM and 2510 nM.
As to `Nc1cc(N)c2nc(NCCc3ccc(Cl)c(Cl)c3)cnc2c1`, the GI50 was 2020 nM in experiment [1]; 17200 nM in [2]; 19800 nM in [3]; 6470 nM in [4]; 19900 nM in experiment [5]; 20500 nM in experiment [6]. The GI50 in [7] was 2050 nM; in experiment [8] it was 12700 nM; in [9] it was 15400 nM; in [10], 15800 nM. Further, the TGI in experiment [1] is 5050 nM; in experiment [2] it was 31000 nM; in [3], 38000 nM; in experiment [4], 18800 nM; in experiment [5], 45700 nM; in experiment [6], 39700 nM. The TGI in experiment [7] is 5300 nM; in experiment [8], 25300 nM; in [9] it was 29800 nM; in experiment [10] it was 30000 nM.
